From US9315448B2 (Cesa Alliance S.A., priority 2011, dated 2016)

How the values were obtained:
Parvovirus = assay: Case study, Parvo infected puppy; details: for Treated - Improvement / Treated Virus or symptom free: Dog (puppy), 300 mg, 3 times/day, 4 days, wt.% per Table 2; for confirmed Parvo free / recovered completely / showed signs of recovery: puppy, 300 mg three times a day for 4 days
[1] = tested on: DNA enveloped, DNA non-enveloped, RNA enveloped and RNA non-enveloped viruses; assay: In vivo case studies, overall conclusions across virus families; details: no base oil
Rotavirus = assay: Case study, piglets with confirmed Rotavirus infections; type: in vivo, Pig (piglet); details: for Treated - Improvement / Treated Virus or symptom free: Pig (piglet), 2 days, wt.% per Table 2; for de-activation of the Rota virus confirmed / recovered completely / stopped having diarrhea: piglets
Protocol: All three piglets, which would normally experience 3 to 4 days of severe symptoms including diarrhea stopped having diarrhea on/after one day. The de-activation of the Rota virus infected was confirmed on/after the second day. The piglets recovered completely within 2 days.
Three piglets with confirmed Rotavirus infections were treated immediately with 50 mg of the compound of formula B, six times a day for 2 days. All 3 piglets, which would normally experience 4 to 5 days of severe symptoms including diarrhea stopped having diarrhea on/after the second day.
Both piglets, which would normally experience 3 to 4 days of severe symptoms including diarrhea stopped having diarrhea after one day.
(§1) All 3 piglets, which would normally experience 3 to 4 days of severe symptoms including diarrhea stopped having diarrhea after one day.
(§2) All 3 piglets, which would normally experience 3 to 4 days of severe symptoms including diarrhea stopped having diarrhea on/after one day.
as §2, §1

[2] = tested on: Porcine reproductive and respiratory syndrome virus; assay: Case study, PRRS confirmed piglets; type: in vivo, Pig (piglet); details: for Treated - Improvement / Treated Virus or symptom free: Pig (piglet), wt.% per Table 2; for confirmed PRRS free / recovered completely / showed signs of recovery: piglets
Canine Herpes virus = assay: Case study, Canine Herpes infected puppy; type: in vivo, Dog (puppy); details: for Treated - Improvement / Treated Virus or symptom free: Dog (puppy), 300 mg, 3 times/day, 4 days, wt.% per Table 2
[3] = tested on: herpes simplex virus type 1; assay: Case study, Herpes Labialis patient, topical treatment; type: in vivo, Human
[4] = tested on: human papilloma virus 2 and 7; assay: Case study, skin warts of a patient
Protocol: Skin warts of patient were treated with 10 mg of the compound of formula B, three times a day for 3 days.
Skin warts of a patient were treated with 10 mg of the compound of formula B+C, three times a day for 3 days.
Skin warts of a patient were treated with 10 mg of the compound of formula A+B+C, three times a day for 3 days.

[5] = 500 mg three times a day for 2 days
[6] = 500 mg three times a day for 4 days
[7] = puppy, 300 mg three times a day for 4 days
[8] = 50 mg six times a day for 2 days
[9] = Human (skin), 10 mg, 3 times/day, 1 day, wt.% per Table 2
[10] = patient, topical, 10 mg three times a day for 1 day, from onset of lesions
[11] = 50 mg six times a day for 3 days
[12] = Human (skin), 10 mg, 3 times/day, 3 days, wt.% per Table 2

Row | Structure (SMILES) | Treated - Improvement (Parvovirus) | Treated Virus or symptom free (Parvovirus) | confirmed Parvo free (Parvovirus) | recovered completely (Parvovirus) | showed signs of recovery (Parvovirus) | results with 100 wt. % of compound compared with Tables 1 and 2 [1] | Treated - Improvement (Rotavirus; 500 mg, 3 times/day) | Treated Virus or symptom free (Rotavirus; 500 mg, 3 times/day) | de-activation of the Rota virus confirmed (Rotavirus; [5]) | recovered completely (Rotavirus; [5]) | stopped having diarrhea (Rotavirus; [5]) | Treated - Improvement ([2]; 500 mg, 3 times/day, 4 days) | Treated Virus or symptom free ([2]; 500 mg, 3 times/day, 4 days) | confirmed PRRS free [2, 6] | recovered completely [2, 6] | showed signs of recovery [2, 6] | Treated - Improvement (Canine Herpes virus) | Treated Virus or symptom free (Canine Herpes virus) | confirmed Herpes free (Canine Herpes virus; [7]) | recovered completely (Canine Herpes virus; [7]) | also measured
1 | C=C=C(C)c1cc(O)c(O)c(C(=O)C[C@](C)(O)C=C)c1 [Formula A] | 1 days | Day 4 | 4 day of treatment | 6 days | first | same results | 1 days | Day 2 | second | ≤ 2 days | one | 1 days | Day 2 | 2 day of treatment | 4 days | one | 2 days | Day 4 | 4 day of treatment | 10 days | showed signs of recovery (Canine Herpes virus; [7]): second
2 | C=C=C(C)c1cc(O)c(O)c(C(=O)C(C)C(C)(C)O)c1 (stereo not shown) [Formula B, 2,3(dihydroxy), 5[3(1,2)butadiene], 2[2-methylbutane]benzenal] |  |  |  |  |  | same results |  |  |  |  |  |  |  |  |  |  |  |  |  |  | Treated - Improvement (Rotavirus; 50 mg, 6 times/day): 2 days; Treated Virus or symptom free (Rotavirus; 50 mg, 6 times/day): Day 3; de-activation of the Rota virus confirmed (Rotavirus; [8]): second; recovered completely (Rotavirus; [8]): ≤ 3 days; stopped having diarrhea (Rotavirus; [8]): second; Treated - Improvement [3, 9]: 3 days; Treated Virus or symptom free [3, 9]: Day 4; course of the infection [3, 10]: did not get worse; lesions started to disappear [3, 10]: second; no more signs of infection [3, 10]: 4 days; Treated - Improvement ([2]; 50 mg, 6 times/day, 3 days): 2 days; Treated Virus or symptom free ([2]; 50 mg, 6 times/day, 3 days): Day 3; confirmed PRRS free [2, 11]: 3 day of treatment; recovered completely [2, 11]: 4 days; showed signs of recovery [2, 11]: second; Treated - Improvement [4, 12]: 7 days; Treated Virus or symptom free [4, 12]: 21 days; skin tissue disappeared completely ([4]; patient, 10 mg three times a day for 3 days): 3 weeks; warts started to soften and becoming white ([4]; patient, 10 mg three times a day for 3 days, time printed in words): a week
3 | C=C=C(C)c1cc(O)c(O)c(C(=O)O[C@](C)(O)C=C)c1 [Formula C, 2,3(dihydroxy), 5[3(1,2)butadiene], 2hydroxy,3butene benzoate] | 1 days | Day 4 | 4 day of treatment | 6 days | first | same results | 1 days | Day 2 | first | ≤ 2 days | one | 1 days | Day 2 | 2 day of treatment | 4 days | one | 2 days | Day 4 | 4 day of treatment | 7 days | 
